Source: patent publication US6545007B2, “Methods for inhibiting the transmission of HIV using topically applied substituted 6-benzyl-4-oxopyrimidines” (Idenix (Cayman) Limited, priority 2000, dated 2003)
Where two headings read alike, the source gives them in different places.

Tests used:
mock-infected MT-4 cells = assay: Cytotoxicity: viability of mock-infected cells by the MTT method; assay type: cell-based, human
Protocol: (§1) Cells and viruses. MT-4, C8166,H9/IIIB and CEM cells were grown at 37° C. in a 5% CO2 atmosphere in RPMI 1640 medium, supplemented with 10% fetal calf serum (FCS), 100 IU/mL penicillin and 100 μg/mL streptomycin. Cell cultures were checked periodically for the absence of mycoplasma contamination with a MycoTect Kit (Gibco). Human immunodeficiency virus type-I (HIV-1, IIIB strain) was obtained from supernatants of persistently infected H9/IIIB cells.
(§2) Anti-HIV Assays. Activity of the compounds against HIV-1 and HIV-2 multiplication in acutely infected cells was based on the inhibition of virus-induced cytopathicity in MT-4 and C8166 cells, respectively. Briefly, 50 μL of culture medium containing 1×10^4 cells were added to each well of flat-bottom microtiter trays containing 50 μl of culture medium with or without various concentrations of the test compounds. Then 20 μL of an HIV suspension containing 100 CCID50 were added. After a 4-day incubation at 37° C., the number of viable cells was determined by the 3-(4,5-dimethylthiazol-[…])-2,5-diphenyltetrazolium bromide (MTT) method. Cytotoxicity of the compounds was evaluated in parallel with their antiviral activity. It was based on the viability of mock-infected cells, as monitored by the MTT method.

HIV-1 (IIIB strain) = assay type: cell-based; conditions: for EC50: anti-HIV-1 activity; for SI: selectivity index (CC50/EC50)
Protocol: Compounds. Compounds were solubilized in DMSO at 200 mM and then diluted into culture medium.
as §1
HIV Titration. Titration of HIV was performed in C8166 cells by the standard limiting dilution method (dilution 1:2, four replica wells per dilution) in 96-well plates. The infectious virus titre was determined by light microscope scoring of cytopathicity after 4 days of incubation and the virus titres were expressed as CCID50/mL.
as §2

[1] = acutely infected MT-4 cells, MTT

| SMILES | EC50 (HIV-1 (IIIB strain); HIV-1-infected MT-4 cells) [µM] | EC50 (HIV-1 (IIIB strain); [1]) [µM] | CC50 (mock-infected MT-4 cells) [µM] | SI (HIV-1 (IIIB strain)) | CC50 (mock-infected MT-4 cells; MTT) [µM] |
| --- | --- | --- | --- | --- | --- |
| Cc1c(Cc2c(Cl)cccc2Cl)nc(SC2CCCCC2)[nH]c1=O [MC 917] | 22 | – | > 200 | >9 | – |
| CCCCSc1nc(Cc2c(Cl)cccc2Cl)c(C)c(=O)[nH]1 [MC 920] | 1.17 | – | > 200 | >171 | – |
| Cc1c(Cc2c(F)cccc2F)nc(SCC(C)C)[nH]c1=O [MC 921] | 0.1 | – | 64 | 640 | – |
| CCC(C)Sc1nc(Cc2ccc([N+](=O)[O-])cc2)c(C)c(=O)[nH]1 (centres unmarked) [MC 924] | 2 | – | > 200 | >100 | – |
| CCC(C)Sc1nc(Cc2cccc([N+](=O)[O-])c2)c(C)c(=O)[nH]1 (centres unmarked) [MC 925] | 0.35 | – | > 200 | >571 | – |
| CCC(C)Sc1nc(Cc2ccc(OC)cc2)cc(=O)[nH]1 (centres unmarked) [MC 964] | 14 | – | 147 | 10.5 | – |
| CCC(c1cc(=O)[nH]c(SC(C)C)n1)c1cccc2ccccc12 (centres unmarked) [MC 969] | 1.5 | – | 50 | 33.3 | – |
| O=c1cc(Cc2c(F)cccc2F)nc(NC2CC2)[nH]1 [MC 980] | 3.17 | – | > 200 | >63 | – |
| CC(c1cc(=O)[nH]c(SC2CCCC2)n1)c1c(Cl)cccc1Cl (centres unmarked) [MC 996] | 1 | – | 78.3 | 78.3 | – |
| CC(C)Sc1nc(C(C)c2c(Cl)cccc2Cl)cc(=O)[nH]1 (centres unmarked) [MC 1001] | 1.2 | – | 117 | 97.5 | – |
| CCC(c1cc(=O)[nH]c(SC2CCCC2)n1)c1c(Cl)cccc1Cl (centres unmarked) [MC 1002] | 1 | – | 23.4 | 23.4 | – |
| CC(c1cc(=O)[nH]c(SC2CCCC2)n1)c1c(F)cccc1F (centres unmarked) [MC 1008] | 0.03 | – | > 200 | >6,666 | – |
| CC(c1cc(=O)[nH]c(SC2CCCCC2)n1)c1c(Cl)cccc1Cl (centres unmarked) [MC 1016] | 2.9 | – | > 200 | >69 | – |
| CCc1c(Cc2c(F)cccc2F)nc(SC(C)C)[nH]c1=O [MC 1037] | 0.2 | – | 65 | 326 | – |
| CC(C)Sc1nc(Cc2c(F)cccc2F)c(C(C)C)c(=O)[nH]1 [MC 1039] | 0.4 | – | > 200 | >500 | – |
| COCCNc1nc(Cc2c(F)cccc2F)cc(=O)[nH]1 [MC 1043] | 0.8 | – | > 200 | >250 | – |
| Cc1c(Cc2c(F)cccc2F)nc(NC2CCCC2)[nH]c1=O [MC 1050] | 0.02 | – | > 200 | >10,000 | – |
| CSc1nc(C(C)c2c(F)cccc2F)c(C)c(=O)[nH]1 (centres unmarked) [MC 1060] | 0.04 | – | > 200 | >5,000 | – |
| Cc1c(Cc2c(F)cccc2F)nc(NCc2ccccc2)[nH]c1=O [MC 1105] | 0.5 | – | 50 | 100 | – |
| CCC(C)Sc1nc(C(C)c2c(F)cccc2F)c(C)c(=O)[nH]1 (centres unmarked) [MC 1109] | 0.03 | – | 200 | 6,666 | – |
| Cc1c(Cc2c(F)cccc2F)nc(NC(C)C)[nH]c1=O [MC 1118] | 0.03 | – | 190 | 6,333 | – |
| Cc1c(C(C)c2c(F)cccc2F)nc(SC(C)C)[nH]c1=O (centres unmarked) [MC 1137] | – | 0.007 | – | – | 200 |
| CSCSc1nc(Cc2ccccc2)cc(=O)[nH]1 [MC 1140] | – | 20 | – | – | > 200 |
| CSCSc1nc(Cc2c(F)cccc2F)c(C(C)C)c(=O)[nH]1 [MC 1145, 6-(2,6-Difluorophenyhnethyl)-3,4-dihydro-5-(1-methylethyl)-2-(methylthiomethyl) thiopyrimidin-4-(3H)-one] | – | 0.1 | – | – | 200 |

Now from value to compound, other results behind:

| EC50 (HIV-1 (IIIB strain); HIV-1-infected MT-4 cells) [µM] | EC50 (HIV-1 (IIIB strain); [1]) [µM] | SMILES | CC50 (mock-infected MT-4 cells) [µM] | SI (HIV-1 (IIIB strain)) | CC50 (mock-infected MT-4 cells; MTT) [µM] |
| --- | --- | --- | --- | --- | --- |
| 11 | – | CCC(C)Sc1nc(Cc2ccc(F)cc2)c(C)c(=O)[nH]1 (centres unmarked) [MC 919] | 105 | 9.5 | – |
| 0.08 | – | Cc1c(Cc2c(F)cccc2F)nc(SC2CCCC2)[nH]c1=O [MC 922] | > 200 | >2,500 | – |
| 0.09 | – | Cc1c(Cc2c(F)cccc2F)nc(SC2CCCCC2)[nH]c1=O [MC 923] | > 200 | >2,222 | – |
| 0.13 | – | CCC(C)Nc1nc(Cc2c(F)cccc2F)cc(=O)[nH]1 (centres unmarked) [MC 945] | > 200 | >1,540 | – |
| 1.96 | – | CCC(C)Sc1nc(Cc2ccccc2OC)cc(=O)[nH]1 (centres unmarked) [MC 952] | > 200 | >208 | – |
| 1.2 | – | CCC(C)Sc1nc(Cc2cccc(OC)c2)cc(=O)[nH]1 (centres unmarked) [MC 957] | > 200 | >166 | – |
| 25 | – | CCC(C)Sc1nc(Cc2ccc(C(F)(F)F)cc2)cc(=O)[nH]1 (centres unmarked) [MC 959] | 200 | 8 | – |
| 23 | – | CCC(C)Sc1nc(Cc2ccc(N)cc2)cc(=O)[nH]1 (centres unmarked) [MC 960] | > 200 | >8 | – |
| 1.1 | – | CC(C)Sc1nc(C(C)c2cccc3ccccc23)cc(=O)[nH]1 (centres unmarked) [MC 971] | 119 | 108 | – |
| 0.5 | – | CC(c1cc(=O)[nH]c(SC2CCCC2)n1)c1cccc2ccccc12 (centres unmarked) [MC 972] | 93 | 186 | – |
| 3 | – | CCC(c1cc(=O)[nH]c(SC2CCCC2)n1)c1cccc2ccccc12 (centres unmarked) [MC 973] | 51 | 17 | – |
| 0.14 | – | CC(c1cc(=O)[nH]c(SC2CCCCC2)n1)c1cccc2ccccc12 (centres unmarked) [MC 974] | 45 | 321.4 | – |
| 0.18 | – | CCC(c1cc(=O)[nH]c(SC2CCCCC2)n1)c1cccc2ccccc12 (centres unmarked) [MC 975] | 16.9 | 94 | – |
| 0.38 | – | CC(C)Nc1nc(Cc2c(F)cccc2F)cc(=O)[nH]1 [MC 979] | > 200 | >526 | – |
| 0.4 | – | CCC(c1cc(=O)[nH]c(SC(C)C)n1)c1c(Cl)cccc1Cl (centres unmarked) [MC 1000] | > 200 | >500 | – |
| 3.6 | – | CCC(c1cc(=O)[nH]c(SC2CCCCC2)n1)c1c(Cl)cccc1Cl (centres unmarked) [MC 1003] | > 200 | >55.5 | – |
| 0.08 | – | CCC(c1cc(=O)[nH]c(SC(C)C)n1)c1c(F)cccc1F (centres unmarked) [MC 1005] | 70 | 875 | – |
| 0.15 | – | CCC(c1cc(=O)[nH]c(SC2CCCC2)n1)c1c(F)cccc1F (centres unmarked) [MC 1006] | 200 | 1,333 | – |

| EC50 (HIV-1 (IIIB strain); HIV-1-infected MT-4 cells) [µM] | EC50 (HIV-1 (IIIB strain); [1]) [µM] | SMILES | CC50 (mock-infected MT-4 cells) [µM] | SI (HIV-1 (IIIB strain)) | CC50 (mock-infected MT-4 cells; MTT) [µM] |
| --- | --- | --- | --- | --- | --- |
| 0.05 | – | CC(C)Sc1nc(C(C)c2c(F)cccc2F)cc(=O)[nH]1 (centres unmarked) [MC 1007] | 167 | 3,340 | – |
| 0.16 | – | CC(c1cc(=O)[nH]c(SC2CCCCC2)n1)c1c(F)cccc1F (centres unmarked) [MC 1013] | > 200 | >1,250 | – |
| 0.05 | – | CCC(c1cc(=O)[nH]c(SC2CCCCC2)n1)c1c(F)cccc1F (centres unmarked) [MC 1014] | 130 | 2,600 | – |
| 0.09 | – | O=c1cc(Cc2c(F)cccc2F)nc(NC2CCCC2)[nH]1 [MC 1022] | > 200 | >2,222 | – |
| 0.1 | – | CCc1c(Cc2c(F)cccc2F)nc(SC(C)CC)[nH]c1=O (centres unmarked) [MC 1038] | > 200 | >2,000 | – |
| 1.4 | – | CCC(C)Sc1nc(Cc2cc(F)cc(F)c2)cc(=O)[nH]1 (centres unmarked) [MC 1041] | > 200 | >143 | – |
| 0.05 | – | CC(C)CSc1nc(C(C)c2c(F)cccc2F)cc(=O)[nH]1 (centres unmarked) [MC 1044] | > 200 | >4,000 | – |
| 0.07 | – | CCCCSc1nc(C(C)c2c(F)cccc2F)cc(=O)[nH]1 (centres unmarked) [MC 1045] | > 200 | 2,857 | – |
| 0.03 | – | CC(c1cc(=O)[nH]c(NC2CCCC2)n1)c1c(F)cccc1F (centres unmarked) [MC 1048] | 75 | 2,500 | – |
| 0.14 | – | O=c1cc(Cc2c(F)cccc2F)nc(NC2CCCCC2)[nH]1 [MC 1049] | 66 | 471 | – |
| 0.1 | – | CCCCNc1nc(Cc2c(F)cccc2F)cc(=O)[nH]1 [MC 1077] | 100 | 1,000 | – |
| 0.11 | – | CCCNc1nc(Cc2c(F)cccc2F)cc(=O)[nH]1 [MC 1078] | 200 | 1,818 | – |
| 20 | – | O=c1cc(Cc2c(F)cccc2F)nc(OC2CCCC2)[nH]1 [MC 1103] | > 200 | >10 | – |
| 0.03 | – | CCC(C)Sc1nc(C(C)c2c(F)cccc2F)cc(=O)[nH]1 (centres unmarked) [MC 1110] | > 200 | >6,666 | – |
| 0.8 | – | CCNc1nc(Cc2c(F)cccc2F)cc(=O)[nH]1 [MC 1119] | > 200 | >250 | – |
| 0.07 | – | CCC(C)Nc1nc(Cc2c(F)cccc2F)c(C)c(=O)[nH]1 (centres unmarked) [MC 1130] | 200 | 2,857 | – |
| – | 0.01 | Cc1c(C(C)c2c(F)cccc2F)nc(SCC(C)C)[nH]c1=O (centres unmarked) [MC 1153] | – | – | > 200 |
